{"source": "patent US20250145570A1", "about": "“DHODH INHIBITOR POLYMORPH” (Aslan Pharmaceuticals Pte Ltd, priority 2022, published 2025)", "test": "Characterisation of new polymorphs: XRPD before and after drying/grinding", "format": "physicochemical", "description": "500 μL 1,1,1.3.3.3-Hexafluoro-2-Propanol was added to 20 mg of amorphous farudodstat DSP polymorph in a 1.5 mL of HPLC vial equipped with a magnetic stirring bar, resulting in formation of a mobile slurry. The slurry was isothermally stirred for 2 weeks at 40° C. An additional 20 mg of material was added to the slurry as it became a clear solution after one week. Solids were isolated by centrifugation using a […] Nylon filter, and were analysed without any further drying by XRPD, TGA and 1H NMR (proton nuclear magnetic resonance). Finally, the samples were dried at 40° C. for 4 hrs and then reanalysed by XRPD.\n350 μL of N-Methylpyrrolidone (NMP) was added to 20 mg of amorphous farudodstat DSP polymorph in a 1.5 mL HPLC vial equipped with a magnetic stirring bar to prepare a mobile slurry. The resulting slurry was thermally cycled for 3 days between 5-40° C. (Ramp rate: 0.1° C./min with isothermal holds of 1 hour at 40° C. and 5° C.). The saturated solution was then evaporated at 100° C., before the solids were analysed by XRPD."}
{"molecule": "COc1cccc(-c2cc(F)c(Nc3ncccc3C(=O)O)c(F)c2)c1", "note": "[NMP polymorph]", "values": [{"measurement": "Stability of polymorphic form", "result": "unstable/metastable"}, {"measurement": "Form after drying", "setting": "drying at 40° C. for 4 hours", "result": "conversion of Pattern 3 back to Pattern 1"}, {"measurement": "XRPD after gentle grinding", "setting": "gentle grinding", "result": "did not change the pattern observed"}]}
